In patent EP0565593B1, “REDUCING PESTICIDAL INTERACTIONS IN CROPS” (priority 1990, dated 1992):
Several values for one entry are separate records, joined by “and”; a condition that tells them apart may be missing. Equal entries are not always repeated. Where two headings read alike, the source gives them in different places.

Assays:
[1] = system: Giant foxtail (GIFT); assay: Greenhouse test Procedure VII (same examples); assay type: in vivo; conditions: Antidote + Biocide No. 1 in furrow
Description: (§1) This procedure describes interaction among herbicide, biocide and antidote when the biocide and the antidote is applied to a soil furrow containing crop seed before emergence of the crop and the herbicide is applied after emergence of the crop and weeds. The soil and planting depth was described in Procedure IV. The containers for comparison, the biocide and antidote applications to soil furrows were described in Procedure VI. In this procedure, the seed beds of the first, second, third and fourth containers are covered by soil layers not treated with herbicide. The containers were then placed on a bench in a greenhouse and subirrigated as required for the duration of the test. The herbicide, dispersed or dissolved in water containing 0.25% v/v nonionic surfactant (X-77) was applied by a track sprayer (187 L/ha) to the emerged plants of the second, third and fourth containers about five days after planting. All treatments were run in duplicate. Plant response was observed according to Procedure IV. Variations in this procedure will be noted in the examples.
In these tests (according to Procedure VII) the safeners in solution with acetone were applied in furrow to the soil, followed by COUNTER 15G granules at 227 g/305 m (8 oz./1000'). Applications were made in alternate rows in two separate 13.7 cm x 27.7 cm pans containing Dupo silt loam. Pans were seeded 1.3 cm deep, placed on benches in a greenhouse and subirrigated. BEACON was formulated in water with 0.25% v/v X-77 surfactant and applied by track sprayer at a rate of 187 L/Ha (20 gal/A). Weed species in this test were giant foxtail, shattercane and velvetleaf. The herbicide was applied five (5) days after PPI initiation and observation of test result (shown in Table 47) made eight (8) days later.
In Table 47 COUNTER 15G is abbreviated as "C" and the antidotes as "A" in the column headings which indicate the "C + A" ratios used in the tests. Control and COUNTER treatments are average of four (4) replications and COUNTER + Antidote treatments, average of 2 reps.

[2] = system: Velvetleaf (VELE); assay: Greenhouse test Procedure VII (same examples); assay type: in vivo, Abutilon theophrasti; conditions: Antidote + Biocide No. 1 in furrow
Description: as §1
In this example, tests were conducted according to Procedure VII for the POE application of the herbicides following in-furrow application of COUNTER® 15G insecticide (BIOCIDE No. 1) and the antidote on the pre-planted test seeds. In this test, the herbicides were Nos. 1 (MON-12000), 10 (ALLY®) and #4 (HARMONY®) and the Antidote Nos. 1, 7, 12 and 33.
These in-furrow treatments comprised a 50-50 mix of blended granules of COUNTER with and without 5G granular antidotes at 7.4 + 7.4 mg/cm or 1.1 + 0.37 mg active ingredient (a.i.)/cm. The in-furrow initiation of the test was followed five (5) days later with POE application of the herbicides; observations were made eight (8) days later. Table 38 […]

[3] = system: Velvetleaf (VELE); assay type: in vivo, Abutilon theophrasti
[4] = Herbicide No. 1 0.14 Kg/Ha POE, 8 days after POE
[5] = Herbicide No. 4 0.17 Kg/Ha POE, 8 days after POE
[6] = Herbicide No. 5 0.07 Kg/Ha POE, 8 days after POE
[7] = Herbicide No. 7 0.56 Kg/Ha POE, 8 days after POE
[8] = Herbicide No. 9 0.009 Kg/Ha POE
[9] = Herbicide No. 10 0.002 Kg/Ha POE, 8 days after POE
[10] = Herbicide No. 15 0.0044 Kg/Ha POE, 8 days after POE
[11] = Herbicide No. 16 0.01 Kg/Ha POE
[12] = Herbicide No. 18 0.0044 Kg/Ha POE
[13] = Herbicide No. 19 0.28 Kg/Ha POE
[14] = Herbicide No. 21 0.14 Kg/Ha POE
[15] = Herbicide No. 23 0.0006 Kg/Ha POE
[16] = Antidote 4.48 + Biocide No. 1 8.96 Kg/Ha PPI, Herb. No. 8 0.07, 5 DAP, before herbicide application
[17] = Antidote 4.48 + Biocide No. 1 8.96 Kg/Ha PPI, Herb. No. 8 0.07 POE, 13 DAP
[18] = Antidote 4.48 + Biocide No. 1 8.96 Kg/Ha PPI, Herbicide No. 7 0.28 POE, 13 days after planting
[19] = Herb. […], 5 DAP, before herbicide application
[20] = Table 14: Herbicide No. 7 (ACCENT) 0.84 Kg/Ha POE + Biocide No. 2 8.96 Kg/Ha PPI + antidote 4.48 Kg/Ha PPI, 13 days after planting, 8 days after herbicide
[21] = […], 13 days after planting, 8 days after herbicide
[22] = […], observed 10 days after herbicide application

Compound | % Inhibition GIFT [1, 4] [%] | % Inhibition GIFT [1, 5] [%] | % Inhibition GIFT [1, 6] [%] | % Inhibition GIFT ([1]; Herbicide No. 6 0.01 Kg/Ha POE) [%] | % Inhibition GIFT [1, 7] [%] | % Inhibition GIFT [1, 8] [%] | % Inhibition GIFT [1, 9] [%] | % Inhibition GIFT [1, 10] [%] | % Inhibition GIFT [1, 11] [%] | % Inhibition GIFT [1, 12] [%] | % Inhibition GIFT [1, 13] [%] | % Inhibition GIFT [1, 14] [%] | % Inhibition GIFT [1, 15] [%] | % Inhibition VELE [2, 4] [%] | % Inhibition VELE [2, 5] [%] | % Inhibition VELE [2, 6] [%] | % Inhibition VELE ([2]; Herbicide No. 6 0.01 Kg/Ha POE) [%] | % Inhibition VELE [2, 7] [%] | % Inhibition VELE [2, 8] [%] | % Inhibition VELE [2, 9] [%] | also measured
COC(=O)COC(c1ccccc1)c1ccccc1 [compound 12] | 0 | 0 | 0 | 50 | 85 | 10 | 0 | 0 | 20 | 60 | 35 | 25 | 25 | 90 | 85 | 85 | 65 | 75 | 85 | 90 | % Inhibition VELE [2, 10]: 75%; % Inhibition VELE [2, 11]: 25%; % Inhibition VELE [2, 12]: 70%; % Inhibition VELE [2, 13]: 60%; % Inhibition VELE [2, 14]: 85%; % Inhibition VELE [2, 15]: 65%; % Inhibition 5 DAP VELE [3, 16]: 25%; % Inhibition 13 DAP VELE [3, 17]: 90%; % Inhibition VELE [3, 18]: 65%; % Inhibition 5 DAP VELE [3, 19]: 0%; % Inhibition 13 DAP VELE ([3]; Herb. […], 13 DAP, after herbicide application): 90%; % Inhibition VELE [3, 20]: 70%; % Inhibition VELE [3, 21]: 75%; % Inhibition VELE ([3]; […], observed 8 days later (Table 32)): 85%; % Inhibition VELE ([3]; […], observed 8 days later (Table 33)): 75%; % Inhibition VELE [3, 22]: 90%; % Inhibition 5 DAP VELE ([3]; in vivo): 20%; % Inhibition 13 DAP VELE ([3]; in vivo): 85%; % Inhibition VELE ([3]; in vivo): 70% and 65% and 85% and 75% and 90% and 80%
N#CCOc1ccc(Cl)c2cccnc12 [compound 33] | 0 | 0 | 0 | 65 | 80 | 25 | 0 | 0 | 30 | 65 | 35 | 30 | 25 | 90 | 90 | 90 | 65 | 65 | 85 | 90 | % Inhibition VELE [2, 10]: 80%; % Inhibition VELE [2, 11]: 40%; % Inhibition VELE [2, 12]: 65%; % Inhibition VELE [2, 13]: 60%; % Inhibition VELE [2, 14]: 90%; % Inhibition VELE [2, 15]: 70%; % Inhibition 5 DAP VELE [3, 16]: 50%; % Inhibition 13 DAP VELE [3, 17]: 95%; % Inhibition VELE [3, 18]: 70%; % Inhibition 5 DAP VELE [3, 19]: 30%; % Inhibition VELE [3, 20]: 75%; % Inhibition VELE [3, 21]: 70%; % Inhibition VELE [3, 22]: 85%; % Inhibition 5 DAP VELE ([3]; in vivo): 60%; % Inhibition 13 DAP VELE ([3]; in vivo): 90%
